Reference: patent US20070074295A1 (priority 2000, published 2007)

Columns and labels:
[1] = test system: UNC5H1 (a netrin receptor); assay: Rat Atlas Array, prefrontal cortex, chronic PCP model; format: in vivo
Experimental: Rats were injected with PCP (2.58 mg/kg) or vehicle i.p. for 5 days according to the YRING PCP model. […] On the same day, the rats began a course of i.p. injections every 2.5 days with either PCP (2.58 mg/kg) or vehicle.
21 days after minipump implantation, animals were killed by cervical dislocation and the prefrontal cortex dissected and stored at −70° C. RNA was then prepared according to the protocol below and the corresponding cDNA synthesis and hybridisation procedure were conducted using the rat Atlas Array kit according to the manufacturer's instructions (Clontech).
Results are expressed as mean relative optical densities ±SEM. Statistical significance was defined as P<0.05. N=¾ per group.
Frozen tissue already resides in the ribolyser tubes from the dissection procedure • 1) Add 1.1 ml Qiagen lysis buffer (containing β-mercaptoethanol, final volume =3%). • 2) Perform 3×20 sec homogenisations at 6.5 g in a ribolyser. • 3) Spin 3 min in microfuge. • 4) Decant to fresh tube and re-spin 3 min. • 5) Decide at this stage if you want to dilute supernatant with more lysis buffer. • 6) Add equal volume of phenol/CHCl3 pH4.7, vortex 30 sec and leave on ice for 10 min. • 7) Re-vortex and spin 4° C. 5-10 min at 1500 g. • 8) Decant supernatant and add 100 μl H2O. Add an equal volume of phenol/CHCl3 pH4.7, vortex, spin 5-10 min at 1500 g. • 9) Decant supernatant and add 100 μl H2O. […]

rats = assay: Effect of haloperidol and clozapine on PCP induced hypofunction: LCGU; format: in vivo, rat; conditions: i.p. PCP 2.58 mgkg^−1; minipump vehicle, clozapine 20 or haloperidol 1 mgkg^−1/day; day 29
Source text: The effect of antipsychotics on the positive symptoms is less well studied regarding imaging studies.

parvalbumin mRNA = assay: Parvalbumin mRNA in situ hybridisation in chronic PCP model; format: in vivo, rat; conditions: chronic PCP treatment, alone or with clozapine or haloperidol
Experimental: In order to validate further this chronic PCP model the effect of this treatment paradigm on parvalbumin mRNA expression was investigated.
In situ hybridisation: a 45mer oligonucleotide probe was designed against bases 223-267 of the rat parvalbumin gene (GenBank accession number A819345). In situ hybridisation was carried out according to the method of Wisden and Morris (1994).

5-HT2A receptors = assay: 5-HT2A receptor binding (3H-ketanserin autoradiography) in prefrontal cortex after chronic PCP; format: in vivo, rat; conditions: chronic PCP treatment
Source text: In order to further validate this chronic PCP model, the effects of this treatment paradigm on 5-HT2A receptors within the prefrontal cortex was investigated. Chronic PCP treatment produced a significant decrease in 5-HT2A receptors in layer II & III (controls 158±6, PCP 139±4 fmolmg^−1) and layers V & VI (controls 82±4, PCP 69±3 fmolmg^−1). This is entirely consistent with post mortem studies of 5-HT2A receptor binding from schizophrenic patents (Laurelle, M. et al).
5-HT2A receptor binding: Sections from the level of the prefrontal cortex were preincubated for two consecutive washes at room temperature in 50mM Tris HCl buffer pH 7.4 to remove endogenous ligand. Total binding was defined using 0.71 nM (Wolkin, A. et al) ^3H-ketanserin in the presence of 1μM prazozin and 1μM tetrabenazine (to block non 5-HT2A binding). Non-specific binding was defined using 50nM spiperone. Sections were incubated with the appropriate ligand solution for 1 hour at room temperature then washed twice for 10 minutes in ice cold buffer before being rinsed in ice cold water and rapidly air dried. The sections were then exposed to film (Biomax MR, Kodak) with previously calibrated (Wolkin, A. et al) ^3H-standards.
Autoradiograms were analysed using MCID densitometry system. Results were statistically analysed using a one-way ANOVA followed by a student Newman-Keuls post hoc test.

freely moving rats = assay: Induction and maintenance of PCP-induced hypofunction: LCGU by 14C-2-deoxyglucose autoradiography; format: in vivo, rat
Experimental: An initial treatment period of intraperitoneal (i.p.) injections once daily for 5 days was carried out, followed by a maintenance schedule of i.p. injections three times weekly (every 60 hours) for a further 21 days.
Intermittent exposure to PCP during the maintenance phase of the model was favoured due to the long half life of the drug within brain tissue (Misra, A. L. et al). […] As a comparison to the present model, the inventors also investigated the effect of previously published subchronic treatment with PCP (Jentsch, J. D. et al) using quantitative C-2-deoxyglucose autoradiography (Sokoloff, L.)
Local cerebral glucose utilisation (LCGU) was measured using an adaptation of the original method for freely moving rats (Crane, A. M. et al) 72 hours after the initial induction phase (day 8) and 72 hours after the induction phase followed by the maintenance phase (day 29). LCGU was measured 72 hours after the last exposure to PCP so the effects of PCP on LCGU would be independent of the acute effects of the drug. […] Thus, using a dose of 2.59 mgkg^−1 the inventors had established a novel treatment paradigm which mimics the findings of human imaging studies in schizophrenic patients.

SMILES: c1ccc(C2(N3CCCCC3)CCCCC2)cc1 [PCP, phencyclidine]
- UNC5H1 expression (Atlas Array) [1]: 3936 ± 472 relative optical densities
- LCGU, Au layer I (rats): 138 ± 3 μmol/100 g/min
- LCGU, Au layers II, III&IV (rats): 174 ± 4 μmol/100 g/min
- LCGU, Au layers V & VI (rats): 120 ± 2 μmol/100 g/min
- LCGU, AuD layer I (rats): 126 ± 5 μmol/100 g/min
- LCGU, AuD layers II, III&IV (rats): 141 ± 6 μmol/100 g/min
- LCGU, AuD layers V & VI (rats): 105 ± 2 μmol/100 g/min
- LCGU, CA1 molecular layer (rats): 93 ± 2 μmol/100 g/min
- LCGU, CA1 pyramidal cell layer (rats): 63 ± 2 μmol/100 g/min
- LCGU, CA1 stratum oriens (rats): 59 ± 2 μmol/100 g/min
- LCGU, CA1 stratum radiatum (rats): 67 ± 2 μmol/100 g/min
- LCGU, CA3 molecular layer (rats): 90 ± 2 μmol/100 g/min
- LCGU, CA3 pyramidal cell layer (rats): 69 ± 2 μmol/100 g/min
- LCGU, CA3 stratum oriens (rats): 60 ± 3 μmol/100 g/min
- LCGU, CA3 stratum radiatum (rats): 70 ± 3 μmol/100 g/min
- LCGU, DLL (rats): 89 ± 4 μmol/100 g/min
- LCGU, MD (rats): 133 ± 6 μmol/100 g/min
- LCGU, PrL layer I (rats): 109 ± 4 μmol/100 g/min
- LCGU, PrL layers II & III (rats): 127 ± 5 μmol/100 g/min
- LCGU, PrL layers V & VI (rats): 97 ± 3 μmol/100 g/min
- LCGU, Rt (rats): 79 ± 2 μmol/100 g/min
- LCGU, VLL (rats): 98 ± 6 μmol/100 g/min
- LCGU, cochlear nucleus (rats): 92 ± 4 μmol/100 g/min
- LCGU, mO layer I (rats): 104 ± 5 μmol/100 g/min
- LCGU, mO layers II & III (rats): 121 ± 6 μmol/100 g/min
- LCGU, mO layers V & VI (rats): 113 ± 6 μmol/100 g/min
- parvalbumin mRNA, prelimbic region of the prefrontal cortex (parvalbumin mRNA): 0.0536±0.0023 relative optical density (ROD)
- parvalbumin mRNA, ventral reticular nucleus of the thalamus (parvalbumin mRNA): 0.5032±0.0194 ROD
- 5-HT2A receptors, prefrontal cortex layer II & III (5-HT2A receptors): 139±4 fmolmg^−1
- 5-HT2A receptors, prefrontal cortex layers V & VI (5-HT2A receptors): 69±3 fmolmg^−1
- maintenance of metabolic hypofunction by second phase of the model (freely moving rats; 0.86 mgkg^−1 PCP): not, however, maintained
- LCGU, Au layer I (freely moving rats; 0.86 mgkg^−1 PCP i.p., day 8): 127 ± 2 μmol/100 g/min
- LCGU, Au layers II, III&IV (freely moving rats; 0.86 mgkg^−1 PCP i.p., day 8): 152 ± 3 μmol/100 g/min
- LCGU, Au layers V & VI (freely moving rats; 0.86 mgkg^−1 PCP i.p., day 8): 114 ± 4 μmol/100 g/min
- LCGU, AuD layer I (freely moving rats; 0.86 mgkg^−1 PCP i.p., day 8): 126 ± 3 μmol/100 g/min
- LCGU, AuD layers II, III&IV (freely moving rats; 0.86 mgkg^−1 PCP i.p., day 8): 151 ± 4 μmol/100 g/min
- LCGU, AuD layers V & VI (freely moving rats; 0.86 mgkg^−1 PCP i.p., day 8): 106 ± 2 μmol/100 g/min
- LCGU, DLL (freely moving rats; 0.86 mgkg^−1 PCP i.p., day 8): 91 ± 4 μmol/100 g/min
- LCGU, MD (freely moving rats; 0.86 mgkg^−1 PCP i.p., day 8): 112 ± 4 μmol/100 g/min
- LCGU, PrL layer I (freely moving rats; 0.86 mgkg^−1 PCP i.p., day 8): 132 ± 6 μmol/100 g/min
- LCGU, PrL layers II & III (freely moving rats; 0.86 mgkg^−1 PCP i.p., day 8): 150 ± 7 μmol/100 g/min
- LCGU, PrL layers V & VI (freely moving rats; 0.86 mgkg^−1 PCP i.p., day 8): 115 ± 3 μmol/100 g/min
- LCGU, Rt (freely moving rats; 0.86 mgkg^−1 PCP i.p., day 8): 106 ± 2 μmol/100 g/min
- LCGU, VLL (freely moving rats; 0.86 mgkg^−1 PCP i.p., day 8): 98 ± 5 μmol/100 g/min
- LCGU, cochlear nucleus (freely moving rats; 0.86 mgkg^−1 PCP i.p., day 8): 107 ± 3 μmol/100 g/min
- LCGU, mO layer (freely moving rats; 0.86 mgkg^−1 PCP i.p., day 8): 110 ± 2 μmol/100 g/min
- LCGU, mO layers II & III (freely moving rats; 0.86 mgkg^−1 PCP i.p., day 8): 127 ± 2 μmol/100 g/min
- LCGU, mO layers V & VI (freely moving rats; 0.86 mgkg^−1 PCP i.p., day 8): 129 ± 5 μmol/100 g/min
- LCGU, Au layer I (freely moving rats; 0.86 mgkg^−1 PCP i.p., day 29): 167 ± 14 μmol/100 g/min
- LCGU, Au layers II, III&IV (freely moving rats; 0.86 mgkg^−1 PCP i.p., day 29): 189 ± 12 μmol/100 g/min
